Values quoted from earlier work, collected in article PMC2693004 (Bioorganic & medicinal chemistry letters, 2009).
Entries after “also recorded” stand apart in the source; their conditions may differ.

Target: T1, recombinant human MAO-A (Homo sapiens, UniProt P21397)
T1 sequence (P21397 1-527): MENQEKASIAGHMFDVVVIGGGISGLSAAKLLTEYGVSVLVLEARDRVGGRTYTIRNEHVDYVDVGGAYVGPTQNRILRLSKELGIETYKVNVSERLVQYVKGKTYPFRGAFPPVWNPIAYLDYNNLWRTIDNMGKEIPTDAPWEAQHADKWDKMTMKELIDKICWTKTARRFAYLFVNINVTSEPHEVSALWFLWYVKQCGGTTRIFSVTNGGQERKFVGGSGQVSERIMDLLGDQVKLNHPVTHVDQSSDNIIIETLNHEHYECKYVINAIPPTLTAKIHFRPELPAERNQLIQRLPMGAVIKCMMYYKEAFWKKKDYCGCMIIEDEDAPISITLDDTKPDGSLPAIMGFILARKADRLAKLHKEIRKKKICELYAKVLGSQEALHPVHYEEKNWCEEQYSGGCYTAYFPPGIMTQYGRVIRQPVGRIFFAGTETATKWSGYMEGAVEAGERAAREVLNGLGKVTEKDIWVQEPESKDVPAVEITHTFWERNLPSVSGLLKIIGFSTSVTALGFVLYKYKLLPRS

SMILES	binding to MAO-A
C(=CCc1ccccc1)Cc1ccccc1 [1,4-diphenyl-2-butene]	do not to bind
Cn1c(=O)c2c(nc(/C=C/c3cccc(Cl)c3)n2C)n(C)c1=O [CSC, (E)-8-(3-chlorostyryl)caffeine]	does not bind; also recorded: do not to bind
